Measurements: patent publication US20240366543A1, “METHODS OF TREATING METHYLMALONIC ACIDEMIA AND PROPIONIC ACIDEMIA” (HemoShear Therapeutics, Inc., priority 2021, published 2024)
≈ marks a conversion by molar mass, not a printed value. Where “and” joins values, the source holds several entries; their conditions need not be identical. Equal entries are not always repeated. Where two headings read alike, the source gives them in different places.

Experiments:
[1] = Phase 2 study preliminary plasma pharmacokinetics in PA/MMA subjects; format: in vivo, human; details: for C24 / concentration at 24 h: 24 hours post-dose; for C24: C24projected: ratio observed to projected; for AUC(0-t): read-out: AUC0-24 h; for concentration at 24 h: read-out: C24
Method: Part A is the dose escalation phase to assess the initial safety and to confirm the pharmacologic activity of Compound 5 in subjects with PA and MMA. Screening for eligibility took place within 28 days of enrollment. All subjects were initially evaluated during a 4-week run-in period followed by within-subject dose escalation of 3 doses (1, 3, and 10 mg/kg QD of sodium 2,2-dimethylbutanoate); dose escalation interval of 4 weeks) to check for improvement in disease-related biomarkers.
Plasma will be analyzed by liquid chromatography with tandem mass spectrometry (LC-MS/MS) with a lower limit of quantitation of 0.100 μg/mL. Samples collected for analyses of Compound 5 (plasma/serum/whole blood)] concentration may also be used to evaluate safety or efficacy aspects related to concerns arising during or after the study.
Preliminary pharmacokinetics (PK) data from the first two subjects of Study described in Examples 7-8 was evaluated at 1 mg/kg, 3 mg/kg and 10 mg/kg of Compound 5 dosed once daily (QD).

[2] = test system: primary hepatocytes of methylmalonic acidemia patients; assay: Propionyl-CoA and methylmalonyl-CoA from 13C-labelled sources in MMA primary hepatocytes (Example 2); format: cell-based, human
Method: Primary hepatocytes isolated from livers of methylmalonic acidemia patients are treated with increasing doses of Compound 5 (0, 0.1, 0.3, 1, 3, 10, 30, 100 µM) for 30 min. After 30 minutes the cells are challenged with the different sources of P-CoA, which may include 13C-KIVA (1 mM), ^13C-isoleucine (3 mM), ^13C-threonine (5 mM), ^13C-methionine (5 mM), ^13C-heptanoate (100 μM), or ^13C-propionate (5 mM) for 60 minutes. At the end of the challenge period, media is removed and the cells are lysed with 70% MeCN and 0.1% TFA containing 100 μM of ethymalonyl-CoA as an internal standard and harvested. Cell lysates are processed for HTMS/MS analysis.

[3] = test system: primary hepatocytes (pHeps) from MMA donors; assay: HemoShear REVEAL-Tx Technology, MMA pHeps; format: cell-based, human
MMA pHeps = assay: Static cell culture, MMA pHeps, low/high propiogenic media; format: cell-based, human; details: for Percent change (30 μM), 12C-Acetyl-CoA / Percent change (30 μM), CoASH: static culture 1.5 h
Method: Unlike the HemoShear Technology, this assay is carried out without constant perfusion, utilizing cell culture media that was customized to mimic plasma levels of propiogenic sources (amino acids and ketoacids) in PA and MMA patients during periods of relative metabolic stability (low propiogenic media) and acute metabolic crisis (high propiogenic media). PA and MMA pHeps, in static cell culture, were treated with Compound 5 (concentrations ranging from 0.1 μM to 100 μM) for 30 minutes in low propiogenic media, followed by either a continuation of low propiogenic media or a switch to the high propiogenic media for 1 hour. The media used during the 1-hour incubation contained propiogenic SIL amino acids and ketoacids which are metabolized into labeled P-CoA and M-CoA in the cells. The SIL amino acids and ketoacids were a mix of ^13C and MeD8 labelling, but their catabolism produced a SIL P-CoA (denoted as ^13C—P-CoA for simplicity) with the same mass, independent of the type of SIL (also true for ^13C-M-CoA).

[4] = test system: primary hepatocytes (pHeps) from PA donors; assay: HemoShear REVEAL-Tx Technology, PA pHeps; format: cell-based, human
Excerpt: For this experiment, we deployed the HemoShear REVEAL-Tx™ technology, which is based on the cone-and-plate configuration or viscometer combined with a porous polycarbonate membrane that mimics a filtering layer of sinusoidal endothelial cells (see: Dash A, Deering TG, Marukian S, et al. Physiological Hemodynamics and Transport Restore Insulin and Glucagon Responses in a Normal Glucose Milieu in Hepatocytes In Vitro. 73rd Scientific Sessions of the American Diabetes Association, 2013 (Chicago), and U.S. Pat. Nos. 7,811,782 and 9,500,642, and 9,617,521, each of which is incorporated by reference herein in its entirety).
Hepatocytes from propionic academia patients are plated in a collagen gel sandwich on one side of the membrane replicating the polarized orientation found in vivo within the hepatic sinusoids. On the other side, medium is continuously perfused and surface shear rates are applied across a range of physiological values derived from sinusoidal flow rates in vivo while also controlling transport in the system with in- and out-flow tubing to each compartment. Effectively, this creates a flow-based culture system where hepatocytes are shielded from direct effects of flow, as they would be in vivo, but perfusion, nutrient gradients, and interstitial fluid movement are maintained.
Biomarker levels are normalized to cell counts and cell volume to account for differences in the number of cells plated for each donor. […] This is most likely due to the presence of ^12C-succinyl-CoA in the sample, which has the same mass. In experiments described below, M-CoA is labeled with ^13C to determine a more accurate percent reduction. Compound 5 reduced the C3 concentration and the C3/C2 ratio with an EC50 similar to that for the reduction in P-CoA (FIGS. 3C, 3D).

[5] = 1 mg/kg QD, single dose, individual subjects 010-1001, 010-1002, preliminary
[6] = 1 mg/kg QD, steady-state, individual subjects
[7] = 3 mg/kg QD, steady-state, individual subjects
[8] = 10 mg/kg QD, steady-state, individual subjects
[9] = human, plasma, oral, 1 mg/kg, 1 mg/kg QD, steady-state, individual subjects
[10] = human, plasma, oral, 10 mg/kg, 10 mg/kg QD, steady-state, individual subjects
[11] = static cell culture, high propiogenic media
[12] = static cell culture, low propiogenic media
[13] = PA pHeps, HemoShear Technology, average ± SD
[14] = PA pHeps, HemoShear Technology, exposed 6 days

AUC0-24 h [1, 5]: 22800 ng·h/mL
Cmax [1, 5]: 1740 ng/mL
C24 [1, 6]: 0.765 µg/mL
AUC0-24 h [1, 6]: 36500 ng·h/mL
Cmax ([1]; 1 mg/kg QD, steady-state, individual subjects 010-1001, 010-1002): 2930 ng/mL
C24: C24projected [1, 6]: 1.27 and 0.829
C24 [1, 7]: 3.34 µg/mL and 1.01 µg/mL
AUC0-24 h [1, 7]: 115000 ng·h/mL
Cmax ([1]; 3 mg/kg QD, steady-state, individual subjects 010-1001, 010-1002): 11400 ng/mL
C24: C24projected [1, 7]: 1.21 and 0.365
C24 [1, 8]: 13.1 µg/mL
AUC0-24 h [1, 8]: 678000 ng·h/mL
Cmax ([1]; 10 mg/kg QD, steady-state, individual subjects 010-1001, 010-1002): 50600 ng/mL
C24: C24projected [1, 8]: 0.985 and 1.42
AUC(0-t) ([1]; human, plasma, oral, 1 mg/kg, 1 mg/kg QD, single dose, individual subjects 010-1001, 010-1002, preliminary): 30800 ng·h/mL
Cmax ([1]; human, plasma, oral, 1 mg/kg, 1 mg/kg QD, single dose, individual subjects 010-1001, 010-1002, preliminary, read-out: Cmax): 2620 ng/mL
concentration at 24 h [1, 9]: 1170 ng/mL
Cmax ([1]; human, plasma, oral, 1 mg/kg, 1 mg/kg QD, steady-state, individual subjects 010-1001, 010-1002, read-out: Cmax): 4410 ng/mL
AUC(0-t) [1, 9]: 56500 ng·h/mL
Cmax ([1]; human, plasma, oral, 3 mg/kg, 3 mg/kg QD, steady-state, individual subjects 010-1001, 010-1002, read-out: Cmax): 15900 ng/mL
AUC(0-t) ([1]; human, plasma, oral, 3 mg/kg, 3 mg/kg QD, steady-state, individual subjects): 189000 ng·h/mL
concentration at 24 h [1, 10]: 9090 ng/mL
Cmax ([1]; human, plasma, oral, 10 mg/kg, 10 mg/kg QD, steady-state, individual subjects 010-1001, 010-1002, read-out: Cmax): 50700 ng/mL
AUC(0-t) [1, 10]: 557000 ng·h/mL
SMILES: CCC(C)(C)C(=O)O [Compound 5, 2,2-dimethylbutyric acid]
intracellular propionyl-CoA and methylmalonyl-CoA from all sources investigated [2]: dose-dependent reduction
average reduction in the C3/C2 ratio (log 2 fold change) ([3]; 30 μM): −2.2±0.2 log 2 fold change
% change at 30 μM, 2-Methylcitric acid (2MC) ([3]; average ± SD): −66.7±14.9%
% change at 30 μM, 12C-Acetyl-Carnitine (C2) ([3]; average ± SD): 44.6 ± 26.8%
% change at 30 μM, 12C-Methylmalonyl-CoA (M-CoA) ([3]; average ± SD): −55±6.6%
% change at 30 μM, 12C-Propionyl-Carnitine (C3) ([3]; average ± SD): −65.9±10.7%
% change at 30 μM, 12C-Propionyl-CoA (P-CoA) ([3]; average ± SD): −74.2±11.6%
Percent change at 30 μM, 12C-Acetyl-CoA ([3]; exposed 6 days): 13.5 ± 24.9%
Percent change at 30 μM, CoASH ([3]; exposed 6 days): −22.3 ± 22.3%
% change at 30 μM, 13C-Methymalonic acid (MMA pHeps; [11]): −91 ± 4%
% change at 30 μM, 13C-Propionyl-CoA (13C-P-CoA) (MMA pHeps; [11]): −75.9±7.3%
% change at 30 μM, 12C-Methylmalonyl-CoA (13C-M-CoA) (MMA pHeps; [12]): −76.5±13.2%
% change at 30 μM, 13C-Methymalonic acid (MMA pHeps; [12]): −83.2 ± 5^ %
% change at 30 μM, 13C-Propionyl-CoA (13C-P-CoA) (MMA pHeps; [12]): −77.6±9.8%
Percent change (30 μM), 12C-Acetyl-CoA (MMA pHeps; high propiogenic media): −14.6 ± 12.6%
Percent change (30 μM), CoASH (MMA pHeps; high propiogenic media): −28.7 ± 7.3%
Percent change (30 μM), 12C-Acetyl-CoA (MMA pHeps; low propiogenic media): −35.5 ± 18.1%
Percent change (30 μM), CoASH (MMA pHeps; low propiogenic media): −47.7 ± 13.4%
EC50 value for CoASH relative to EC50 value for reduction in disease biomarkers ([4]; HemoShear Technology, PA and MMA pHeps, 6 days): 10 fold
EC90 ([4]; Homo sapiens, Hepatocyte, exposure threshold used for comparison with clinical PK, read-out: estimated in vitro EC90): 2.32 µg/mL (≈ 20 µM)
average reduction in the C3/C2 ratio (log 2 fold change) ([4]; PA pHeps, HemoShear Technology, 30 μM): −2.1±1.2 log 2 fold change
% change at 30 μM, 2-Methylcitric acid (2MC) [4, 13]: −78.6±12.9%
% change at 30 μM, 12C-Acetyl-Carnitine (C2) [4, 13]: 54 ± 80.6%
% change at 30 μM, 12C-Propionyl-Carnitine (C3) [4, 13]: −68.9±14.6% and −69.4 ± 16.2%
% change at 30 μM, 12C-Propionyl-CoA (P-CoA) [4, 13]: −78.8±10.9%
Percent change at 30 μM, 12C-Acetyl-CoA [4, 14]: 54 ± 80.6%
Percent change at 30 μM, CoASH [4, 14]: −31.3 ± 24.2%
